Experimental data: ChEMBL document CHEMBL3808385, “Synthesis, antitumor evaluation and molecular docking studies of [1,2,4]triazolo[4,3-b][1,2,4,5]tetrazine derivatives” (Bioorg Med Chem Lett, 2016)

Experiments:
BeWo = test: Cytotoxicity against human Bewo cells assessed as cell growth inhibition after 72 hrs by MTT assay; format: functional, cell-based
[1] = Cytotoxicity against human HL60 cells assessed as cell growth inhibition after 72 hrs by MTT assay; format: functional, cell-based; details: HL-60, 72 h
MCF7 = test: Cytotoxicity against human MCF7 cells assessed as cell growth inhibition after 72 hrs by MTT assay; format: functional, cell-based; details: MCF7, 72 h
[2] = target: T1, Hepatocyte growth factor receptor (Homo sapiens, UniProt P08581); test: Inhibition of cMET (unknown origin) using poly(Glu-Tyr) substrate incubated for 60 mins by ELISA
Mus musculus [3] = test: Toxicity in ICR mouse assessed as loss of locomotor activity at 100 mg/kg, ig measured after 14 days; format: organism-based; details: in vivo, po, 336 h
Mus musculus [4] = test: Toxicity in ICR mouse assessed as pulmonary congestion at 90 mg/kg, ig measured after 14 days; format: organism-based; details: in vivo, po, 336 h
Mus musculus [5] = test: Toxicity in ICR mouse assessed as respiratory depression at 72.9 mg/kg, ig measured after 14 days; format: organism-based; details: in vivo, po, 336 h
CCRF S-180 [6] = test: Antitumor activity against mouse S180 cells xenografted in ICR mouse assessed as tumor growth inhibition at 5 mg/kg, ig administered once daily for 7 days starting from second day post xenograft measured after 10 days; format: functional; details: CCRF S-180, po, read-out: TGI
Mus musculus [7] = test: Toxicity in ICR mouse assessed as pulmonary congestion at 81 mg/kg, ig measured after 14 days; format: organism-based; details: in vivo, po, 336 h
Mus musculus [8] = test: Toxicity in ICR mouse assessed as respiratory depression at 90 mg/kg, ig measured after 14 days; format: organism-based; details: in vivo, po, 336 h
Mus musculus [9] = test: Toxicity in ICR mouse assessed as convulsions on limbs at 72.9 mg/kg, ig measured after 14 days; format: organism-based, Limb; details: in vivo, po, 336 h
Mus musculus [10] = test: Toxicity in ICR mouse assessed as convulsions on limbs at 81 mg/kg, ig measured after 14 days; format: organism-based, Limb; details: in vivo, po, 336 h
Mus musculus [11] = test: Toxicity in ICR mouse assessed as loss of locomotor activity at 81 mg/kg, ig measured after 14 days; format: organism-based; details: in vivo, po, 336 h
Mus musculus [12] = test: Toxicity in ICR mouse assessed as convulsions on limbs at 90 mg/kg, ig measured after 14 days; format: organism-based, Limb; details: in vivo, po, 336 h
[13] = Toxicity in ICR mouse assessed as mortality at 72.9 mg/kg, ig measured after 14 days; format: organism-based; details: in vivo, po
Mus musculus [14] = test: Toxicity in ICR mouse assessed as pulmonary congestion at 72.9 mg/kg, ig measured after 14 days; format: organism-based; details: in vivo, po, 336 h
Mus musculus [15] = test: Toxicity in ICR mouse assessed as pulmonary congestion at 100 mg/kg, ig measured after 14 days; format: organism-based; details: in vivo, po, 336 h
[16] = target: T1, Hepatocyte growth factor receptor; test: Inhibition of cMET (unknown origin) using TK substrate-biotin as substrate preincubated with compound followed by substrate addition for 40 mins measured after 1 hr by HTRF assay
Mus musculus [17] = test: Toxicity in ICR mouse assessed as convulsions on limbs at 100 mg/kg, ig measured after 14 days; format: organism-based, Limb; details: in vivo, po, 336 h
CCRF S-180 [18] = test: Antitumor activity against mouse S180 cells xenografted in ICR mouse assessed as tumor growth inhibition at 10 mg/kg, ig administered once daily for 7 days starting from second day post xenograft measured after 10 days; format: functional; details: CCRF S-180, po, read-out: TGI
[19] = Toxicity in ICR mouse assessed as mortality at 65.6 mg/kg, ig measured after 14 days; format: organism-based; details: in vivo, po
Mus musculus [20] = test: Toxicity in ICR mouse assessed as respiratory depression at 81 mg/kg, ig measured after 14 days; format: organism-based; details: in vivo, po, 336 h
Mus musculus [21] = test: Toxicity in ICR mouse assessed as loss of locomotor activity at 72.9 mg/kg, ig measured after 14 days; format: organism-based; details: in vivo, po, 336 h
Mus musculus [22] = test: Toxicity in ICR mouse assessed as clinical signs parameters at 65.6 mg/kg, ig measured after 14 days; format: organism-based; details: in vivo, po, 336 h
[23] = Toxicity in ig dosed ICR mouse assessed as mortality measured after 14 days; format: organism-based; details: in vivo, po
Mus musculus [24] = test: Toxicity in ICR mouse assessed as body weight loss at 65.6 mg/kg, ig measured after 14 days; format: organism-based; details: in vivo, po, 336 h
Mus musculus [25] = test: Toxicity in ICR mouse assessed as loss of locomotor activity at 90 mg/kg, ig measured after 14 days; format: organism-based; details: in vivo, po, 336 h
Mus musculus [26] = test: Toxicity in ICR mouse assessed as respiratory depression at 100 mg/kg, ig measured after 14 days; format: organism-based; details: in vivo, po, 336 h
CCRF S-180 [27] = test: Antitumor activity against mouse S180 cells xenografted in ICR mouse assessed as tumor growth inhibition at 20 mg/kg, ig administered once daily for 7 days starting from second day post xenograft measured after 10 days; format: functional; details: CCRF S-180, po, read-out: TGI

T1 sequence (P08581 whole entry): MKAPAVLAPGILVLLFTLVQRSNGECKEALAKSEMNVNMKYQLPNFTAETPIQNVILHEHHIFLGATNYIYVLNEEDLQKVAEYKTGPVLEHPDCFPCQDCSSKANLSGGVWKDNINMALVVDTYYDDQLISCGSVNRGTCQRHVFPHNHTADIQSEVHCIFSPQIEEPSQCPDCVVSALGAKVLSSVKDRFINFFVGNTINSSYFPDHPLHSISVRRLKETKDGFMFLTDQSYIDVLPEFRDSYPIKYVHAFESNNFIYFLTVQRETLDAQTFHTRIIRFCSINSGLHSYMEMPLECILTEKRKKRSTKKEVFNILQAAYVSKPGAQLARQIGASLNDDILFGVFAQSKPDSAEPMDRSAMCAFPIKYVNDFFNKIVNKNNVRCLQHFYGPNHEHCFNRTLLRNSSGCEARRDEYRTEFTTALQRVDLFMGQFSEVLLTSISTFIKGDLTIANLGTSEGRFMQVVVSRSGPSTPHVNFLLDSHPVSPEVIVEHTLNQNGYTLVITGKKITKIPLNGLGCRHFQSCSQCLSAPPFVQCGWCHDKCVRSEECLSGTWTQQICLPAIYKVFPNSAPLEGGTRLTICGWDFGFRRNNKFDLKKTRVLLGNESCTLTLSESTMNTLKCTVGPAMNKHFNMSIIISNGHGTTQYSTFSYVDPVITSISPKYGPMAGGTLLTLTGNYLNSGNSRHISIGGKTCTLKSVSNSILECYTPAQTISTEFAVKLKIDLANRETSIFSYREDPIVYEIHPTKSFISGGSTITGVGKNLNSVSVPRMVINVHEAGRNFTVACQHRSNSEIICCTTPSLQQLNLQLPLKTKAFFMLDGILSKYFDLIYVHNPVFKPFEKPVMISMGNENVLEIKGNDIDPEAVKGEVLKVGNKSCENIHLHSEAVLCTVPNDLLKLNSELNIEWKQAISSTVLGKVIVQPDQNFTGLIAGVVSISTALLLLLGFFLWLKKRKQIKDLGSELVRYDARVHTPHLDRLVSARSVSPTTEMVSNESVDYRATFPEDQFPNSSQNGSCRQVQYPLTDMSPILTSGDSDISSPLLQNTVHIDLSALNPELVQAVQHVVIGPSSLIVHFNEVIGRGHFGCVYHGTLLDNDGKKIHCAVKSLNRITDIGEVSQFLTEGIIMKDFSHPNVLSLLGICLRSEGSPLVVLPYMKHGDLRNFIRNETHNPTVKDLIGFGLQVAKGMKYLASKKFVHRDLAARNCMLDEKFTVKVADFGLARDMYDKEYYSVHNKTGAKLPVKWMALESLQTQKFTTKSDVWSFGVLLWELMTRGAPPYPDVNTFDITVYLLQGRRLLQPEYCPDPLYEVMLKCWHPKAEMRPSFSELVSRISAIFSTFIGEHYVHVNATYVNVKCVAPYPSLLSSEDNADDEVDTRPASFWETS

Q: For `CC(C)(C)C(=O)N1CCN(c2nnc3nncn3n2)CC1`, which IC50 (BeWo) is on record?
A: 2.41 µM

Q: And the IC50 [1]?
A: 1.38 µM

Q: And the IC50 (MCF7)?
A: 5.51 µM

Q: Which IC50 (BeWo) does the source give for `CCCCC(=O)N1CCN(c2nnc3nncn3n2)CC1` here?
A: 1.72 µM

Q: What about the IC50 [1] of the same compound?
A: 3.13 µM

Q: And the IC50 (MCF7)?
A: 2.76 µM

Q: For `Cc1ccc(C(=O)N2CCN(c3nnc4nncn4n3)CC2)cc1`, which IC50 (BeWo) is on record?
A: 14.3 µM

Q: What about the IC50 [1] of the same compound?
A: 9.31 µM

Q: And the IC50 (MCF7)?
A: 15.9 µM

Q: For `COc1ccc2c(OCc3nnc4nnc(-c5ccccc5)nn34)ccnc2c1`, which IC50 [2] is on record?
A: 6 nM

Q: Which IC50 (BeWo) does the source give for `CC(Nc1nnc2nncn2n1)C(=O)O` (configuration not stated) here?
A: 82.2 µM

Q: And the IC50 [1]?
A: 74.2 µM

Q: And the IC50 (MCF7)?
A: > 100 µM

Q: What does the source list for `Nc1nnc2nncn2n1`?
A: IC50 (BeWo): 17.3 µM; IC50 [1]: 68.5 µM; IC50 (MCF7): 46.5 µM

Q: For `c1nnc2nnc(N3CCOCC3)nn12`, which Activity (Mus musculus [3]) is on record?
A: Toxic

Q: What about the IC50 (BeWo) of the same compound?
A: 1.3 µM

Q: What about the Activity (Mus musculus [4]) of the same compound?
A: Toxic

Q: And the Activity (Mus musculus [5])?
A: Toxic

Q: And the inhibition in vivo at 5 mg/kg (CCRF S-180 [6])?
A: 24.2%

Q: What about the IC50 [1] of the same compound?
A: 1.45 µM

Q: And the IC50 (MCF7)?
A: 2.24 µM

Q: What about the Activity (Mus musculus [7]) of the same compound?
A: Toxic

Q: And the Activity (Mus musculus [8])?
A: Toxic

Q: And the Activity (Mus musculus [9])?
A: Toxic

Q: And the Activity (Mus musculus [10])?
A: Toxic

Q: And the Activity (Mus musculus [11])?
A: Toxic

Q: And the Activity (Mus musculus [12])?
A: Toxic

Q: What about the mortality at 336 h [13] of the same compound?
A: 25%

Q: What about the Activity (Mus musculus [14]) of the same compound?
A: Toxic

Q: What about the Activity (Mus musculus [15]) of the same compound?
A: Toxic

Q: What about the IC50 [16] of the same compound?
A: 11.8 µM

Q: And the Activity (Mus musculus [17])?
A: Toxic

Q: And the inhibition in vivo at 10 mg/kg (CCRF S-180 [18])?
A: 63%

Q: And the mortality at 336 h [19]?
A: 0%

Q: What about the Activity (Mus musculus [20]) of the same compound?
A: Toxic

Q: And the Activity (Mus musculus [21])?
A: Toxic

Q: What about the Activity (Mus musculus [22]) of the same compound?
A: Non-toxic

Q: And the LD50 at 336 h [23]?
A: 82.5 mg/kg

Q: What about the Activity (Mus musculus [24]) of the same compound?
A: Non-toxic

Q: And the Activity (Mus musculus [25])?
A: Toxic

Q: What about the Activity (Mus musculus [26]) of the same compound?
A: Toxic

Q: And the inhibition in vivo at 20 mg/kg (CCRF S-180 [27])?
A: 27.9%

Q: For `CC(=O)N1CCN(c2nnc3nncn3n2)CC1`, which IC50 (BeWo) is on record?
A: 13.1 µM

Q: And the IC50 [1]?
A: 14.7 µM

Q: What about the IC50 (MCF7) of the same compound?
A: 13.9 µM

Q: Which IC50 (BeWo) does the source give for `Cc1cc(C)n(-c2nnc3nncn3n2)n1` here?
A: 47.3 µM

Q: And the IC50 [1]?
A: 63.3 µM

Q: What about the IC50 (MCF7) of the same compound?
A: > 100 µM

Q: For `CCCCNc1nnc2nncn2n1`, which IC50 (BeWo) is on record?
A: 8.64 µM

Q: What about the IC50 [1] of the same compound?
A: 36.2 µM

Q: What about the IC50 (MCF7) of the same compound?
A: 13.7 µM

Q: For `CC(C)COC(=O)N1CCN(c2nnc3nncn3n2)CC1`, which IC50 (BeWo) is on record?
A: 13.1 µM

Q: What about the IC50 [1] of the same compound?
A: 7.93 µM

Q: What about the IC50 (MCF7) of the same compound?
A: 5.39 µM

Q: Which results are given for `O=C(C1CCCCC1)N1CCN(c2nnc3nncn3n2)CC1`?
A: IC50 (BeWo): 1.9 µM; IC50 [1]: 1.16 µM; IC50 (MCF7): 1.26 µM; IC50 [16]: 7.9 µM

Q: With `c1nnc2nnc(NC3CCCCC3)nn12` as the compound, how does the IC50 (BeWo) read?
A: 2.65 µM

Q: And the IC50 [1]?
A: 6.61 µM

Q: What about the IC50 (MCF7) of the same compound?
A: 3.51 µM

Q: For `c1nnc2nnc(N3CCCCC3)nn12`, which IC50 (BeWo) is on record?
A: 10.8 µM

Q: And the IC50 [1]?
A: 23.6 µM

Q: And the IC50 (MCF7)?
A: 27.2 µM

Q: For `c1nnc2nnc(N3CCCC3)nn12`, which IC50 (BeWo) is on record?
A: 4.29 µM

Q: And the IC50 [1]?
A: 24.4 µM

Q: And the IC50 (MCF7)?
A: 5.13 µM

Q: For `CCCCCC(=O)N1CCN(c2nnc3nncn3n2)CC1`, which IC50 (BeWo) is on record?
A: 2.96 µM

Q: What about the IC50 [1] of the same compound?
A: 3.61 µM

Q: What about the IC50 (MCF7) of the same compound?
A: 5.26 µM
